Measured values: patent US20240091200A1 (Lilac Therapeutics, Inc., priority 2019, published 2024)
“And” between values parts separate entries of the source, which are not always exact repeats. Equal values may be shown once. Read-outs that look alike come from different tables or passages of the source. Values belong to the molecule of their own block, whether it stands above or below them.

Columns and labels:
[1] = target: Glycolate oxidase (GO) (Homo sapiens (Human), UniProt Q9UJM8); test: GO biochemical assay (Amplex Red, 384-well)
Procedure: Amplex® Red Hydrogen Peroxide/Peroxidase Assay Kit (Catalog no. A22188) was purchased from Thermo Fisher (Waltham, MA).
The reaction was mixed and incubated at room temperature for 20 min followed by reading the plates by EnVision plate reader (Perkin Elmer, San Jose, CA) with excitation at 570 nm and emission 585 nm. […] The % inhibition as calculated as 100%×(Well-Negative)/(Positive-Negative)

[2] = Plasma pharmacokinetics after an oral dose of Example 2 in SD rats; format: in vivo, Sprague Dawley rats; settings: for bioavailability: oral
Procedure: An oral dose of Example 2 was formulated in a sterile solution of 50% water, 37.5% PEG 300, and 12.5% DMSO at 1.0 mg/mL. The dosing group consisted of three fasted male Sprague Dawley rats. At dosing, the animals weighed between 0.26 and 0.27 kg. For the oral dosing group, the formulated dose was administered via oral gavage at 5.0 mL/kg for a dose of 5.0 mg/kg. Non-compartmental pharmacokinetic analysis was performed on the plasma concentration-time data.

[3] = Plasma pharmacokinetics of Example 68 after IV infusion or PO dose in SD rats; format: in vivo
[4] = Example 2 in plasma, PO Example 2 5 mg/kg, individual rats
[5] = male, Sprague Dawley, rat, plasma, po, 5 mg/kg, Example 2 in plasma, PO Example 2 5 mg/kg, individual rats
[6] = male, Sprague Dawley, rat, plasma, po, 5 mg/kg, Example 2 in plasma, PO Example 2 5 mg/kg, mean n=3
[7] = Example 68 in plasma, PO dose of Example 2 5 mg/kg, individual rats
[8] = male, Sprague Dawley, rat, plasma, po, 5 mg/kg, Example 68 in plasma, PO dose of Example 2 5 mg/kg, individual rats
[9] = male, Sprague Dawley, rat, plasma, po, 5 mg/kg, Example 68 in plasma, PO dose of Example 2 5 mg/kg, mean n=3
[10] = 30-minute IV infusion 1 mg/kg, individual rats
[11] = 30-minute IV infusion 1 mg/kg, mean n=3
[12] = PO dose 5 mg/kg, individual rats
[13] = SD, rat, plasma, po, 5 mg/kg, PO dose 5 mg/kg, mean n=3
[14] = Sprague-Dawley (SD), rat, plasma, iv, 1 mg/kg, 30-minute IV infusion 1 mg/kg, individual rats
[15] = Sprague-Dawley (SD), rat, plasma, iv, 1 mg/kg, 30-minute IV infusion 1 mg/kg, mean n=3

Glycolate oxidase (GO), sequence (Q9UJM8 whole entry): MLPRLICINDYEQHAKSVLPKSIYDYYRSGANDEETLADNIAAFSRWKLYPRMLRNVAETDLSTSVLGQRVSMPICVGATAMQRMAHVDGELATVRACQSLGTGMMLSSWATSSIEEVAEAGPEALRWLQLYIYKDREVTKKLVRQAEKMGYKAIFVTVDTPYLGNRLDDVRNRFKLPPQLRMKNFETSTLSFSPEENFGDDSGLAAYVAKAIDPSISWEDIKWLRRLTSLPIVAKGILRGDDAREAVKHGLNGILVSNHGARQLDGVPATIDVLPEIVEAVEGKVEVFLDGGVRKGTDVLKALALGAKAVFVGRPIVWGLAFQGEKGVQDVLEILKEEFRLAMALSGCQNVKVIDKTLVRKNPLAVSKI

IC50 [1]: 1 µM
AUC0-24 h [2, 4]: 1550 nM·h and 1850 nM·h
AUCinf [2, 4]: 1570 nM·h and 1900 nM·h
Cmax [2, 4]: 2.53 µM and 2.11 µM
Tmax [2, 4]: 30 min
AUCinf ([2]; Example 2 in plasma, PO Example 2 5 mg/kg, mean n=3): 1600 nM·h
AUC(0-inf) [2, 5]: 1340 nM·h
Cmax [2, 5]: 2.54 µM
AUC(0-t) ([2]; male, Sprague Dawley, rat, plasma, po, 5 mg/kg, Example 2 in plasma, PO Example 2 5 mg/kg, individual rats, read-out: AUC0-24 h): 1270 nM·h
Tmax ([2]; male, Sprague Dawley, rat, plasma, po, 5 mg/kg, Example 2 in plasma, PO Example 2 5 mg/kg, individual rats, read-out: Tmax): 15 min
AUC(0-inf) [2, 6]: 1600 ± 280 nM·h
Cmax [2, 6]: 2.39 ± 0.246 µM
AUC(0-t) ([2]; male, Sprague Dawley, rat, plasma, po, 5 mg/kg, Example 2 in plasma, PO Example 2 5 mg/kg, mean n=3, read-out: AUC0-24 h): 1560 nM·h
Tmax ([2]; male, Sprague Dawley, rat, plasma, po, 5 mg/kg, Example 2 in plasma, PO Example 2 5 mg/kg, mean n=3, read-out: Tmax): 19.8 min
Compound: CCOC(=O)c1[nH]nnc1-c1ccc(-c2ccc(C(N)=O)cc2)cc1 [Example 2, ethyl 4-(4carbamoyl-[1,1biphenyl]-4-yl)-1H-1,2,3-triazole-5-carboxylate]

F (bioavailability) ([2]; Example 68 after PO Example 2 5 mg/kg, based on IV exposure of Example 68 at 1.0 mg/kg, individual rats): 20.2% and 17.4%
AUC0-24 h [2, 7]: 3360 nM·h and 2930 nM·h
AUCinf [2, 7]: 3450 nM·h and 2980 nM·h
Cmax [2, 7]: 2.22 µM and 2.45 µM
Tmax [2, 7]: 15 min
AUCinf ([2]; Example 68 in plasma, PO dose of Example 2 5 mg/kg, mean n=3): 3250 nM·h
bioavailability ([2]; male, Sprague Dawley, rat, plasma, 5 mg/kg, Example 68 after PO Example 2 5 mg/kg, based on IV exposure of Example 68 at 1.0 mg/kg, individual rats, read-out: F (bioavailability)): 19.4%
bioavailability ([2]; male, Sprague Dawley, rat, plasma, 5 mg/kg, Example 68 after PO Example 2 5 mg/kg, based on IV exposure of Example 68 at 1.0 mg/kg, mean n=3, read-out: F (bioavailability)): 19 ± 1.4%
AUC(0-inf) [2, 8]: 3320 nM·h
Cmax [2, 8]: 2.12 µM
AUC(0-t) ([2]; male, Sprague Dawley, rat, plasma, po, 5 mg/kg, Example 68 in plasma, PO dose of Example 2 5 mg/kg, individual rats, read-out: AUC0-24 h): 3150 nM·h
Tmax ([2]; male, Sprague Dawley, rat, plasma, po, 5 mg/kg, Example 68 in plasma, PO dose of Example 2 5 mg/kg, individual rats, read-out: Tmax): 30 min
AUC(0-inf) [2, 9]: 3250 ± 242 nM·h
Cmax [2, 9]: 2.27 ± 0.171 µM
AUC(0-t) ([2]; male, Sprague Dawley, rat, plasma, po, 5 mg/kg, Example 68 in plasma, PO dose of Example 2 5 mg/kg, mean n=3, read-out: AUC0-24 h): 3140 nM·h
Tmax ([2]; male, Sprague Dawley, rat, plasma, po, 5 mg/kg, Example 68 in plasma, PO dose of Example 2 5 mg/kg, mean n=3, read-out: Tmax): 25.2 min
AUCinf [3, 10]: 3110 nM·h and 3460 nM·h
AUClast [3, 10]: 3090 nM·h and 3450 nM·h
CL (apparent systemic clearance) [3, 10]: 1.04 L/h/kg and 0.93 L/h/kg
Cmax [3, 10]: 5.1 µM and 5.35 µM
MRT (mean residence time) [3, 10]: 29.4 min and 26.4 min
Vss (volume of distribution) [3, 10]: 0.51 L/kg
t1/2 (terminal) [3, 10]: 64.8 min and 57.6 min
CL (apparent systemic clearance) [3, 11]: 0.95 L/h/kg
t1/2 (terminal) [3, 11]: 61.2 min
AUCinf [3, 12]: 383 nM·h and 479 nM·h
AUClast [3, 12]: 334 nM·h and 396 nM·h
Cmax [3, 12]: 0.0904 µM and 0.065 µM and 0.182 µM
F (oral bioavailability) [3, 12]: 1.9%
Tmax [3, 12]: 0.25 hr (2×) and 2.00 hr
AUC(0-inf) ([3]; SD, rat, plasma, po, 5 mg/kg, PO dose 5 mg/kg, individual rats): 485 nM·h
AUC(0-inf) [3, 13]: 449 nM·h
Cmax [3, 13]: 0.113 µM
AUC(0-inf) [3, 14]: 3690 nM·h
AUC(0-t) [3, 14]: 3680 nM·h
Cmax [3, 14]: 4.94 µM
clearance ([3]; Sprague-Dawley (SD), rat, plasma, iv, 1 mg/kg, 30-minute IV infusion 1 mg/kg, individual rats, read-out: CL (apparent systemic clearance) (converted)): 0.87 L/h/kg
MRT ([3]; Sprague-Dawley (SD), rat, plasma, iv, 1 mg/kg, 30-minute IV infusion 1 mg/kg, individual rats, read-out: MRT (mean residence time)): 28.2 min
Vd ([3]; Sprague-Dawley (SD), rat, plasma, iv, 1 mg/kg, 30-minute IV infusion 1 mg/kg, individual rats, read-out: Vss (volume of distribution)): 0.41 L/kg
half-life ([3]; Sprague-Dawley (SD), rat, plasma, iv, 1 mg/kg, 30-minute IV infusion 1 mg/kg, individual rats, read-out: t1/2 (terminal) (converted)): 60.6 min
AUC(0-inf) [3, 15]: 3420 nM·h
AUC(0-t) [3, 15]: 3400 nM·h
Cmax [3, 15]: 5.13 µM
clearance ([3]; Sprague-Dawley (SD), rat, plasma, iv, 1 mg/kg, 30-minute IV infusion 1 mg/kg, mean n=3, read-out: CL (apparent systemic clearance) (converted)): 0.95 L/h/kg
MRT ([3]; Sprague-Dawley (SD), rat, plasma, iv, 1 mg/kg, 30-minute IV infusion 1 mg/kg, mean n=3, read-out: MRT (mean residence time)): 28.2 ± 1.2 min
Vd ([3]; Sprague-Dawley (SD), rat, plasma, iv, 1 mg/kg, 30-minute IV infusion 1 mg/kg, mean n=3, read-out: Vss (volume of distribution)): 0.44 ± 0.06 L/kg
half-life ([3]; Sprague-Dawley (SD), rat, plasma, iv, 1 mg/kg, 30-minute IV infusion 1 mg/kg, mean n=3, read-out: t1/2 (terminal) (converted)): 61.2 ± 3.6 min
AUC(0-t) ([3]; Sprague-Dawley (SD), rat, plasma, po, 5 mg/kg, PO dose 5 mg/kg, individual rats): 429 nM·h
bioavailability ([3]; Sprague-Dawley (SD), rat, plasma, po, 5 mg/kg, PO dose 5 mg/kg, individual rats, read-out: F (oral bioavailability)): 2.5%
AUC(0-t) ([3]; Sprague-Dawley (SD), rat, plasma, po, 5 mg/kg, PO dose 5 mg/kg, mean n=3): 386 nM·h
bioavailability ([3]; Sprague-Dawley (SD), rat, plasma, po, 5 mg/kg, PO dose 5 mg/kg, mean n=3, read-out: F (oral bioavailability)): 2.3%
Tmax ([3]; Sprague-Dawley (SD), rat, plasma, po, 5 mg/kg, PO dose 5 mg/kg, mean n=3, read-out: Tmax): 49.8 min
Compound: NC(=O)c1ccc(-c2ccc(-c3nn[nH]c3C(=O)O)cc2)cc1 [Example 68, 4-(4carbamoyl-[1,1biphenyl]-4-yl)-1H-1,2,3-triazole-5-carboxylic acid]
